Source: EP0806422A2, “Anti-cataract agent” (Senju Pharmaceutical Co., Ltd., priority 1996, dated 1997)

Legend:
[1] = biological target: T1, rat lens aldose reductase (Rattus norvegicus, UniProt P07943); test: Enzyme assay: inhibition of aldose reductase, monitored spectrophotometrically as decrease in NADPH absorbance at 340 nm; type: biochemical; conditions: 1x10^-4 M concentration; purified recombinant rat aldose reductase, in vitro; read-out: inhibition rate of aldose reductase
T1 construct: made in house; host or cells: Escherichia coli
Procedure: The activity of purified recombinant rat aldose reductase (Old SE, Sato S, Kador PF. and Carper DA.: In vitro expression of rat lens aldose reductase in Escherichia coli., Proc. Nat. Acad. Sci. USA, 87:4942-4945, 1990) was assayed by spectrophotometrically monitoring decrease in absorbance of NADPH (reduced nicotinamide adenine dinucleotide phosphate) at 340 nm (Kador PF., Goosey JD., Sharpless NE., Kolish J, and Miller DD.: Stereoscopic inhibition of aldose reductase, European J., Med. Chem. 16: 293-298, 1981).
One enzyme unit was defined as amount of enzyme consuming one micromole of NADPH under the assay conditions.
With reference to 1-N,N-dimethylsulfamoyl-4-(2-pyrimidinyl)piperazine (SRA-1; product of Example 3) and 4-((4-dimethylsulfamoyl)piperazino)-2,6-dimethoxypyrimidine (SRA-2; product of Example 1), their in vitro ability to inhibit rat lens aldose reductase were determined.

[2] = tested on: Diabetic Rats; test: Cataract formation in streptozotocin-induced diabetic rats, lens changes evaluated by slit lamp; type: in vivo, Sprague Dawley rats; conditions: 0.06% drug in rat chow; for cataract formation: Figure 1, result of Test Example 2; for cataract formation / onset and severity of sugar cataract formation / progress of lens changes to the vacuole stage: diabetic rats; for Lens changes were observed at: days after injection of streptozotocin, untreated diabetic lens changes began at 21 days; for onset and severity of sugar cataract formation: compared with control chow; for progress of lens changes to the vacuole stage: in untreated diabetic rats vacuoles clearly visible by 35 days
Procedure: Diabetes was induced in 40 young (60-80 g) Sprague Dawley rats by tail vein injection of 75 mg/kg streptozotocin in Tris-HCl and divided into 3 groups. After 4 days all rats were tested with glucostrips (tail blood), and those with blood sugar levels less than 250 mg % were reinjected with 70 mg/kg streptozotocin dissolved in Tris-HCl.
Drug administration was carried out by adding 0.06% drug to rat chow. The rat chow with added drug was formed by mixing appropriate amounts of each drug with powdered rat chow and then cold pressing the mixture into different size pellets for identification. The rat chow was commercially prepared by BioServe (Frenchtown, N.J.). Subsequently, each compound was dissolved in 500 ml of Tris buffer and mixed with 5 kg of standard rat chow pellets until all liquid was absorbed into the pellets and the wet pellets were dried for 24 hours at 60°C. Rat chow not containing drug was fed to a control group of rats.
Lens changes were evaluated by portable slit lamp at approximately 3-6 day intervals in the diabetic rats. Lens changes were evaluated on a scale at 0 to 3 as follows: 0 clear lens; 1 vacuoles present; 2 cortical opacities; 3 hypermature cataract. The severity of lens changes within the vacuole and cortical stage was further subjectively defined as follows: 1.2 peripheral equatorial vacuoles; 1.4 obvious formation 50% of the lens; 1.6 obvious vacuole formation 50% of lens; 1.8 total lens covered by vacuoles; 2.2 start of cortical changes with posterior capsule still visible by slit lamp; 2.4 advanced cortical opacities covering most of lens; cortical opacity expanded to whole lens; 2.8 total lens is white in appearance.

| inhibition at 100 µM [1] | Compound | cataract formation [2] | Lens changes were observed at [2] | onset and severity of sugar cataract formation [2] | progress of lens changes to the vacuole stage [2] |
| --- | --- | --- | --- | --- | --- |
| 13% | COc1cc(N2CCN(S(=O)(=O)N(C)C)CC2)nc(OC)n1 [SRA-2, 4-((4-dimethylsulfamoyl)piperazino)-2,6-dimethoxypyrimidine] | inhibited | 45 days | delayed | did not progress to the vacuole stage |
| 5% | CN(C)S(=O)(=O)N1CCN(c2ncccn2)CC1 [SRA-1, 1-N,N-dimethylsulfamoyl-4-(2-pyrimidinyl)piperazine] | inhibited | 39 days | delayed | did not progress to the vacuole stage |
